Results reported in patent US20150038471A1, “PROCESS FOR PREVENTING OR MITIGATING BIOFOULING” (Baker Hughes Incorporated, priority 2010, published 2015).

Experiments:
Type in all cases: cell-based
[1] = tested on: acid-producing bacteria (APB); assay: Mitigation of APB growth in seawater, dilution series bottles; details: 600 ppm product; seawater 3% TDS; contact 20 hours; three replicate columns
Method: Various biocidal blends with only 50% THPS, only XC800, and different mixtures were tested, along with a control, at preventing or mitigating APB growth. The media was seawater with 3% total dissolved solids (TDS). Contact times were 20 hours and the reaction volume was 50 ml, using 8 bottles per dilution series string. APB growth was measured from 0 to 4 in logarithmic units.
In FIG. 1, it is expected that the mitigation of APB growth would generally follow a straight line (dashed in FIG. 1) from 600 ppm THPS (50%) to 600 ppm XC800.

[2] = tested on: sulfate-reducing bacteria (SRB); assay: SRB surviving 3 h treatment, serial dilution enumeration (NACE TMO 194-2004)
Source text: Following the treatment, an aliquot of each sample was serially diluted (10-fold dilutions) into culture media for SRB to enumerate the survivors according to NACE TMO 194-2004.

[3] = tested on: bacterial-fouled water taken from an oil production site; assay: Turbidity of bacterial-fouled oilfield water culture in synthetic brine; details: 600 nm after 24 hours
Method: A sample of a bacterial-fouled water was taken from an oil production site and used as a culture base for testing of cinnamaldehyde as a bactericide. The culture was introduced into a synthetic brine (similar to that used for oilfield operations) and turbidity was measure at 600 nm after 24 hours.

tetrakis hydroxymethyl phosphonium sulfate [50% THPS only]
APB growth (0 to 4) [1]: 1 logarithmic units

tetrakis hydroxymethyl phosphonium sulfate [THPS]
SRB Surviving Treatment ([2]; THPS 50 ppm, cinnamaldehyde 0 ppm): ≧10^10 SRB/ml
SRB Surviving Treatment ([2]; THPS 100 ppm, cinnamaldehyde 0 ppm): ≧10^10 SRB/ml
SRB Surviving Treatment ([2]; THPS 250 ppm, cinnamaldehyde 0 ppm): 10^5 SRB/ml

O=CC=Cc1ccccc1 [Cinnamaldehyde, cinnamaldehyde]
SRB Surviving Treatment ([2]; THPS 0 ppm, cinnamaldehyde 25 ppm): ≧10^10 SRB/ml
SRB Surviving Treatment ([2]; THPS 0 ppm, cinnamaldehyde 50 ppm): ≧10^10 SRB/ml
Turbidity ([3]; cinnamaldehyde 50 ppm): 1.854
Turbidity ([3]; cinnamaldehyde 125 ppm): 0.973
Turbidity ([3]; cinnamaldehyde 250 ppm): 0.175
Turbidity ([3]; cinnamaldehyde 375 ppm): 0.103
Turbidity ([3]; cinnamaldehyde 500 ppm): 0.113
